Patent US11753407B2, “Compounds for treating spinal muscular atrophy” (PTC Therapeutics, Inc., priority 2012, dated 2023)

Tests used:
[1] = system: SMN2 mRNA in tissues of C/C-allele SMA mice; test: SMN2 mRNA RT-qPCR splicing assay in animal tissues; format: in vivo; details: brain and muscle, 10 mg/kg BID oral gavage 10 days, versus vehicle (FIG. 6)
Method: The reverse transcription-quantitative PCR-based (RT-qPCR) assay is used to quantify the levels of the full length and Δ7 SMN2 mRNA in tissues from mice treated with test compound.
Protocol. C/C-allele SMA mice are treated by oral gavage two times per day (BID) for 10 days with test compounds re-suspended in 0.5% HPMC and 0.1% Tween-80. Tissue samples were collected and snap frozen for RNA purification.
(§1) Tissue samples (20-40 mg) are homogenized in QIAzol Lysis Reagent for 2 minutes at 20 Hz in the TissueLyser II using one stainless steel bead. After addition of chloroform, the homogenate is separated into aqueous and organic phases by centrifugation. RNA partitioned to the upper, aqueous phase is extracted and ethanol is added to provide appropriate binding conditions. The sample is then applied to the RNeasy spin column from the RNeasy Mini Kit, where total RNA binds to the membrane. The RNA is eluted in RNase-free water then stored at −20° C. and subsequently analyzed using the TaqMan RT-qPCR on the 7900HT Thermocycler. Total RNA is diluted ten fold and 2.5 μL of the diluted sample is added to the TaqMan RT-qPCR mixture.
SMN2 spliced products are identified using the following primers and probe in Table 7. Primer SMN FL Forward B (SEQ ID NO. 7) hybridizes to a nucleotide sequence in exons 7 and 8, primer SMN Δ7 Forward B (SEQ ID NO. 8) hybridizes to a nucleotide sequence in exons 6 and 8, primer SMN Reverse B (SEQ ID NO. 9) hybridizes to a nucleotide sequence in exon 8, probe SMN Probe B (SEQ ID NO. 10) hybridizes to a nucleotide sequence in exon 8. These primers and probe hybridize to nucleotide sequences common to human SMN1 and SMN2 mRNA. Since the SMA patient cells used in Example 5 contain only the SMN2 gene, RT-qPCR can quantify only SMN2 full-length and Δ7 mRNA.
The SMN forward and reverse primers are used at final concentrations of 0.4 μM. The SMN probe is used at a final concentration of 0.15 μM. The SMN-GAPDH Mix (10 μL total volume) is prepared by combining 5 μL of 2× RT-PCR buffer, 0.4 μL of 25× RT-PCR enzyme mix, 0.5 μL of 20× GAPDH primer-probe mix, 1.505 μL of water, 2.5 μL of RNA solution, 0.04 μL of 100 μM forward primer, 0.04 μL of 100 μM reverse primer, and 0.015 μL of 100 μM SMN probe. […]
The increase of SMN2 FL and decrease in SMN2 Δ7 mRNA relative to those in tissues from animals treated with vehicle control are determined from real-time PCR data using a modified ΔΔCt method (as described in Livak and Schmittgen, Methods, 2001, 25:402-8). The amplification efficiency (E) is calculated from the slope of the amplification curve for SMN2 FL, SMN2 Δ7, and GAPDH individually. The abundances of SMN2 FL, SMN2 Δ7, and GAPDH are then calculated as (1+E)^−Ct, where Ct is the threshold value for each amplicon. […]

[2] = system: SMN2 mRNA in tissues of C/C-allele SMA mice; test: Endogenous SMN2 mRNA end-point semi-quantitative RT-PCR splicing assay in animal tissues; format: in vivo; details: brain and muscle, BID oral gavage 10 days, end-point RT-PCR (FIG. 7)
Method: The endpoint reverse transcription-PCR (RT-PCR) splicing assay is used to quantify the levels of the full length and Δ7 SMN2 mRNA in tissues from mice treated with test compound.
Protocol. C/C-allele SMA mice are treated by oral gavage BID for 10 days with test compounds in 0.5% HPMC and 0.1% Tween-80. Tissue samples are collected and snap frozen for RNA purification.
as §1, with “C.” for “C. and subsequently analyzed using the TaqMan RT-qPCR on the 7900HT Thermocycler. Total RNA is diluted ten fold and 2.5 μL of the diluted sample is added to the TaqMan RT-qPCR mixture.”
SMN2 spliced products are identified using the following amplification primers in Table 8. These primers hybridize to a nucleotide sequence in exon 6 (SMN Forward D, SEQ ID NO. 13) (nucleotide 22 to nucleotide 46) and exon 8 (SMN Reverse C, SEQ ID NO. 12), common to human SMN1 and SMN2 mRNA.
To synthesize cDNA, combine 1 μL of RNA solution (25-50 ng), 4 μL of 5× iScript reaction mix, 1 μL of reverse transcriptase, and 10 μL of water are combined and incubates 25° C. for 5 min followed by 42° C. for 30 min followed by 85° C. for 5 min. The cDNA solution is stored at −20° C.
To perform endpoint PCR, 5 μL of cDNA, 0.2 μL of 100 μM forward primer, 0.2 μL of 100 μM reverse primer, and 22.5 μL of polymerase super mix are combined in a 96 well semiskirted PCR plate. PCR is carried out at the following temperatures for the indicated time: Step 1: 94° C. (2 min), Step 2: 94° C. (30 sec), Step 3: 55° C. (30 sec), Step 4: 68° C. (1 min), then repeat Steps 2 to 4 for a total of 33 cycles, then hold at 4° C.
10 μL of each PCR sample is electrophoretically separated on a 2% agarose E-gel for 14 minutes stained with dsDNA staining reagents (e.g., ethidium bromide) and visualized using a gel imager.

| SMILES | SMN2 FL mRNA [1] | SMN2 Δ7 mRNA [1] | SMN2 FL mRNA [2] | SMN2 Δ7 mRNA [2] |
| --- | --- | --- | --- | --- |
| COc1ccc(-c2cc(=O)n3cc(N4CCNCC4)ccc3n2)cc1OC [Cpd 6, 2-(3,4-dimethoxyphenyl)-7-(piperazin-1-yl)-4H-pyrido[1,2-a]pyrimidin-4-one] | substantially more SMN2 FL mRNA | less SMN2 Δ7 mRNA | progressively more SMN2 FL mRNA | less SMN2 Δ7 mRNA |
| Cc1cn2nc(-c3cc(=O)n4cc(N5CCN(C)CC5)ccc4n3)cc2c(C)n1 [Cpd 170, 2-(4,6-dimethylpyrazolo[1,5-a]pyrazin-2-yl)-7-(4-methylpiperazin-1-yl)-4H-pyrido[1,2-a]pyrimidin-4-one] | substantially more SMN2 FL mRNA | less SMN2 Δ7 mRNA | progressively more SMN2 FL mRNA | less SMN2 Δ7 mRNA |
